Measured values as given in patent US7605182B2, “Compounds that selectively bind to membranes of apoptotic cells” (Aposense Ltd., priority 2003, dated 2009).

System: apoptotic Jurkat cells
Assay: Selective binding of NST-892 to apoptotic Jurkat cells; flow-cytometric (FACS) analysis
Format: cell-based, human
Conditions: 500 μM compound, 20 minutes
Description: Cultured Jurkat cells (human […] T cell leukemia cells) were grown in suspension in RPMI medium (Beit-Haemek, Israel), supplemented with 10% of fetal calf serum (FCS), 4 mM of L-glutamine, 1 mM of sodium pyruvate, 1 mM CaCl2 and antibiotics (100 units/ml penicilin; 100 μg/ml streptomycin and 12.5 units/ml of nystatin) Prior to induction of apoptosis, medium was replaced with HBS buffer (10 mM HEPES; 140 mM NaCl, 1 mM CaCl). Apoptosis was then triggered by treatment with anti-Fas Ab (0.1 μg/ml; 2.5 hrs). Both control cells and apoptotic cells were then incubated for 20 minutes with 500 μM of NST-892 dissolved in 0.1 m NaPpi pH=7.4. Subsequently, cells were co-stained with propidium iodide (PI), a marker of membrane disintegration during late phases of cell death, and the selective binding of the NST-892 compounds to control and apoptotic cells was determined by flow cytometric (FACS) analysis using Becton-Dickinson cell sorter and CellQuest software (excitation was at 356 nm and emission was measured at 530 nm).

CN(C)c1cccc2c(S(=O)(=O)NC(C(=O)O)c3cccc4c(C(N)C(=O)O)cccc34)cccc12 (centres unmarked) [NST-892, Mono Dansyl Naphthalene Diglycine]
percent of identified early apoptotic events within the population (cells binding NST-892, excluding PI) (apoptotic Jurkat cells (anti-Fas Ab 0.1 μg/ml; 2.5 hrs)): 68.9% | percent of identified early apoptotic events within the population (cells binding NST-892, excluding PI) (non-treated control Jurkat cells): 3.3%
